Target: T1, GPR6 receptor expressed in CHO-K1 cells (Homo sapiens, UniProt P46095)
T1 construct: expressed in transfected cells
Assay: In vitro inhibition of cAMP (EC50), cell-based HTRF cAMP assay
Details: inhibition of constitutive cAMP activity of GPR6 in CHO-K1 cells
Outline: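 Tetracycline-inducible CHO-K1 line, GPR6 expression induced 20 h with 2 μg/mL doxycycline. Compounds incubated 45 min at 37 °C in Ringer's buffer (pH 7.4) with 0.5% fatty acid free BSA and 300 μM IBMX. Constitutive cAMP read by Lance HTRF; EC50 from four-parameter logistic fit.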

T1 sequence (P46095 whole entry): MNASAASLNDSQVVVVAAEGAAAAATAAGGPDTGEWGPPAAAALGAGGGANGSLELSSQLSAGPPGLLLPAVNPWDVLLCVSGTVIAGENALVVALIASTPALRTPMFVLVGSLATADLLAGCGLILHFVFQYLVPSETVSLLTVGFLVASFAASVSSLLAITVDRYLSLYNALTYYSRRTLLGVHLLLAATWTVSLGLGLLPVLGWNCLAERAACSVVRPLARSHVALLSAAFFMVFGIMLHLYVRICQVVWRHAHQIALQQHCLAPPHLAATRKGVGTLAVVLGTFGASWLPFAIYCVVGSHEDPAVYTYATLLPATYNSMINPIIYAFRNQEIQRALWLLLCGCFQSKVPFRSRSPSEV

| SMILES | pEC50, in vitro inhibition of cAMP |
| --- | --- |
| COc1ccc(C(=O)Nc2cc(C#N)ccc2N2CCC(Oc3ccc(F)cc3F)CC2)nn1 [Example 136, N-(5-cyano-2-(4-(2,4-difluorophenoxy)piperidin-1-yl)phenyl)-6-methoxypyridazine-3-carboxamide] | 6.8 |
| COc1c(F)cc(F)cc1C(=O)Nc1cc(C#N)ccc1N1CCC(Oc2ccc(F)cc2F)CC1 [Example 207, N-(5-cyano-2-(4-(2,4-difluorophenoxy)piperidin-1-yl)phenyl)-3,5-difluoro-2-methoxybenzamide] | 6.8 |
| COc1ccc(Br)cc1C(=O)Nc1cc(C#N)ccc1N1CCC(Oc2ccc(F)cc2F)CC1 [Example 225, 5-bromo-N-(5-cyano-2-(4-(2,4-difluorophenoxy)piperidin-1-yl)phenyl)-2-methoxybenzamide] | 6.4 |
| COc1ncccc1C(=O)Nc1cc(C#N)ccc1N1CCN(Cc2ccc(F)cc2)CC1 [Example 91, N-(5-cyano-2-(4-(4-fluorobenzyl)piperazin-1-yl)phenyl)-2-methoxynicotinamide] | 7.1 |
| COc1nn(C)cc1C(=O)Nc1cc(C#N)cnc1N1CCN(Cc2cccc(OC(F)F)c2)CC1 [Example 164, N-(5-cyano-2-(4-(3-(difluoromethoxy)benzyl)piperazin-1-yl)pyridin-3-yl)-3-methoxy-1-methyl-1H-pyrazole-4-carboxamide] | 6.5 |
| COc1ncccc1C(=O)Nc1cc(C#N)ccc1N1CCN(Cc2ccccc2F)CC1 [Example 239, N-(5-cyano-2-(4-(2-fluorobenzyl)piperazin-1-yl)phenyl)-2-methoxynicotinamide] | 6.9 |
| N#Cc1ccc(N2CCC(Oc3ccc(F)cc3F)CC2)c(NC(=O)c2cccn(Cc3ccccn3)c2=O)c1 [Example 203, N-(5-cyano-2-(4-(2,4-difluorophenoxy)piperidin-1-yl)phenyl)-2-oxo-1-(pyridin-2-ylmethyl)-1,2-dihydropyridine-3-carboxamide] | 5.6 |
| Cn1cccc(C(=O)Nc2ccc(S(C)(=O)=O)cc2N2CCC(Oc3ccc(F)cc3F)CC2)c1=O [Example 30, N-(2-(4-(2,4-difluorophenoxy)piperidin-1-yl)-4-(methylsulfonyl)phenyl)-1-methyl-2-oxo-1,2-dihydropyridine-3-carboxamide] | 7.2 |
| COc1ncccc1C(=O)Nc1cc(C#N)ccc1N1CCN(Cc2cscn2)CC1 [Example 241, N-(5-cyano-2-(4-(thiazol-4-ylmethyl)piperazin-1-yl)phenyl)-2-methoxynicotinamide] | 6.0 |
| CCn1ncc(C(=O)Nc2cc(C#N)cnc2N2CCC(Oc3ccc(F)cc3F)CC2)c1OC [Example 120, N-(5-cyano-2-(4-(2,4-difluorophenoxy)piperidin-1-yl)pyridin-3-yl)-1-ethyl-5-methoxy-1H-pyrazole-4-carboxamide] | 7.4 |
| COCc1cnc(N2CCN(Cc3ccc(F)cc3F)CC2)c(NC(=O)c2cccnc2OC)c1 [Example 33, N-(2-(4-(2,4-difluorobenzyl)piperazin-1-yl)-5-(methoxymethyl)pyridin-3-yl)-2-methoxynicotinamide] | 7.2 |
| Cc1cnc(C(=O)Nc2cc(C#N)ccc2N2CCC(Oc3ccc(F)cc3F)CC2)c(C)n1 [Example 114, N-(5-cyano-2-(4-(2,4-difluorophenoxy)piperidin-1-yl)phenyl)-3,5-dimethylpyrazine-2-carboxamide] | 6.1 |
| COc1nc(C)ncc1C(=O)Nc1cc(C#N)ccc1N1CCC(Oc2ccc(F)cc2F)CC1 [Example 278] | 7.4 |
| N#Cc1cnc(N2CCC(Oc3ccc(F)cc3F)CC2)c(NC(=O)c2cnccc2O)c1 [Example 61] | 6.4 |
| COc1cc(C)ccc1C(=O)Nc1cc(C#N)ccc1N1CCC(Oc2ccc(F)cc2F)CC1 [Example 236, N-(5-cyano-2-(4-(2,4-difluorophenoxy)piperidin-1-yl)phenyl)-2-methoxy-4-methylbenzamide] | 7.1 |
